Test results: patent US7138411B2, “Substituted benzopyran derivatives for the treatment of inflammation” (G.D. Searle & Co., priority 1997, dated 2006)

Tests used:
COX-2 [1] = molecular target: T1, COX-2 (UniProt P35354); assay: Assay for COX-2 activity (PGE2 ELISA); conditions: read-out: COX-2 IC50; 10–20 minutes pre-incubation, reaction stopped after ten minutes, pH 8.0
T1 sequence (P35354 1-604): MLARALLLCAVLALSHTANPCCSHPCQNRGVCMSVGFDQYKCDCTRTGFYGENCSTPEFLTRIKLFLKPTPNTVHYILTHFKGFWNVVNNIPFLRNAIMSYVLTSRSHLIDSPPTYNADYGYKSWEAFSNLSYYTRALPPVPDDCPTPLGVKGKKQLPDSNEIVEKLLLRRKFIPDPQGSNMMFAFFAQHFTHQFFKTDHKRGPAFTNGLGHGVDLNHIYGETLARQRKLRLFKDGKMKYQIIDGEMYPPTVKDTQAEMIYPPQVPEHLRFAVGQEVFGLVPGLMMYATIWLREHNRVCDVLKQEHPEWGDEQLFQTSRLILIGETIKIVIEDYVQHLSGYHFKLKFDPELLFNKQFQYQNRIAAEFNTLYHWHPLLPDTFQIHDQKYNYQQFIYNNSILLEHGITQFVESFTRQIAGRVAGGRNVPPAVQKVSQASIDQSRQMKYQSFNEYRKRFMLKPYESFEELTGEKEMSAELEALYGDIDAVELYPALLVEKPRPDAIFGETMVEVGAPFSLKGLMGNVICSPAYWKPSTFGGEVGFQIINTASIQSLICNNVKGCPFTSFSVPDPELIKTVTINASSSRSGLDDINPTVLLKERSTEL

COX-2 [2] = molecular target: T1, COX-2; assay: Fast assay for COX-2 activity (PGE2 ELISA); type: biochemical, human or murine; conditions: fast assay: 10 min pre-incubation at 25° C., reaction stopped after two minutes, pH 7.5
COX-1 = COX-1 (UniProt P23219); assay: Assay for COX-1 activity (PGE2 ELISA); conditions: read-out: COX-1 IC50; 10–20 minutes pre-incubation, reaction stopped after ten minutes, pH 8.0

Row | SMILES | IC50 (COX-2 [1]) | IC50 (COX-2 [2]) | melting point | IC50 (COX-1)
1 | COc1ccc(Oc2cc3c(cc2Cl)C=C(C(=O)O)C(C(F)(F)F)O3)cc1 (centres unmarked) [Example 183, 6-Chloro-7-(4-methoxyphenoxy)-2-(trifluoromethyl)-2H-1-benzopyran-3-carboxylic acid] | < 0.1 µM | < 0.1 µM | 213.2 to 214.3 °C | 4.1 µM
2 | O=C(O)C1=Cc2cc(Cl)cc(-c3ccccc3)c2OC1C(F)(F)F (centres unmarked) [Example 129, 6-Chloro-8-phenyl-2-(trifluoromethyl)-2H-1-benzopyran-3-carboxylic acid] | < 0.1 µM | 0.2 µM | 196.3 to 197.7 °C | 0.3 µM
3 | O=C(O)C1=Cc2ccc(Oc3ccccc3)cc2OC1C(F)(F)F (centres unmarked) [Example 176, 7-Phenoxy-2-(trifluoromethyl)-2H-1-benzopyran-3-carboxylic acid] | 2 µM | < 0.1 µM | 180 to 181 °C | 3.3 µM
4 | C=Cc1cc(Cl)cc2c1OC(C(F)(F)F)C(C(=O)O)=C2 (centres unmarked) [Example 114, 6-Chloro-8-ethenyl-2-(trifluoramethyl)-2H-1-benzopyran-3-carboxylic acid] | < 0.1 µM | < 0.1 µM | 183.2 to 185.8 °C | < 0.1 µM
5 | CC(C)CNS(=O)(=O)c1ccc2c(c1)C=C(C(=O)O)C(C(F)(F)F)O2 (centres unmarked) [Example 55, 6-[(2-Methylpropyl)aminosulfonyl]-2-trifluoromethyl-2H-1-benzopyran-3-carboxylic acid] | 53 µM | 46 µM | 190.6 to 192.4 °C | > 100 µM
6 | O=C(O)C1=Cc2cc(SC(F)(F)F)ccc2SC1C(F)(F)F (centres unmarked) [Example 155, 2-(Trifluoromethyl)-6-[(trifluoromethyl)thio]-2H-1-benzothiopyran-3-carboxylic acid] | < 0.1 µM | < 0.1 µM | 129.3 to 132.4 °C | < 0.1 µM
7 | O=C(O)C1=Cc2cc(Cl)cc(Br)c2OC1C(F)(F)F (centres unmarked) [Example 15, 8-Bromo-6-chloro-2-trifluoromethyl-2H-1-benzopyran-3-carboxylic acid] | 134 µM | > 0.1 µM | 227.8 to 228.9 °C | 44 µM
8 | CC(C)(CO)c1ccc2c(c1)OC(C(F)(F)F)C(C(=O)O)=C2 (centres unmarked) [Example 179, 7-(2-Hydroxy-1,1-dimethylethyl)-2-(trifluoromethyl)-2H-1-benzopyran-3-carboxylic acid] | 16 µM | 15.6 µM | 228.9 to 230 °C | > 100 µM
9 | O=C(O)C1=Cc2cc(C(=O)c3ccc(Cl)cc3)ccc2OC1C(F)(F)F (centres unmarked) [Example 97, 6-(4-Chlorobenzoyl)-2-(trifluoromethyl)-2H-1-benzopyran-3-carboxylic acid] | 0.1 µM | 0.2 µM | 268.3 to 269.4 °C | 25 µM
10 | O=C(O)C1=Cc2cc(Cl)c(I)cc2OC1C(F)(F)F (centres unmarked) [Example 180, 6-Chloro-7-iodo-2-(trifluoromethyl)-2H-1-benzopyran-3-carboxylic acid] | < 0.1 µM | < 0.1 µM | 224.9 to 225.9 °C | > 100 µM
11 | O=C(O)C1=Cc2cc(S(=O)(=O)NCc3ccccc3)ccc2OC1C(F)(F)F (centres unmarked) [Example 49, 6-[[(Phenylmethyl)amino]sulfonyl]-2-trifluoromethyl-2H-1-benzopyran-3-carboxylic acid] | 31 µM | 24 µM | 223.3 to 224.4 °C | > 100 µM
12 | C#Cc1cc2c(cc1Cl)C=C(C(=O)O)C(C(F)(F)F)O2 (centres unmarked) [Example 181, 6-Chloro-7-ethynyl-2-(trifluoromethyl)-2H-1-benzopyran-3-carboxylic acid] | > 100 µM | 1.5 µM | > 300 °C | > 100 µM
13 | O=C(O)C1=Cc2c(ccc3oc4ccccc4c23)OC1C(F)(F)F (centres unmarked) [Example 106, 3-(Trifluoromethyl)-3H-benzofuro[3,2-f][1]benzopyran-2-carboxylic acid] | < 0.1 µM | 0.2 µM | 253.5 to 256 °C | 5.7 µM
14 | COc1ccc(Oc2ccc3c(c2)C=C(C(=O)O)C(C(F)(F)F)O3)cc1Cl (centres unmarked) [Example 9, 6-(3-Chloro-4-methoxyphenoxy)-2-(trifluoromethyl)-2H-1-benzopyran-3-carboxylic acid] | < 0.1 µM | < 0.1 µM | 205 to 207 °C | < 0.1 µM
15 | COc1cc(Br)cc2c1OC(C(F)(F)F)C(C(=O)O)=C2 (centres unmarked) [Example 47, 6-Bromo-8-methoxy-2-trifluoromethyl-2H-1-benzopyran-3-carboxylic acid] | 1.7 µM | 1.9 µM |  | > 100 µM
16 | CSc1ccc2c(c1)C=C(C(=O)O)C(C(F)(F)F)O2 (centres unmarked) [Example 2, 6-(Methylthio)-2-(trifluoromethyl)-2H-1-benzopyran-3-carboxylic acid] | < 0.1 µM | < 0.1 µM |  | 5 µM

Continued, values first:

Row | IC50 (COX-2 [1]) | IC50 (COX-2 [2]) | melting point | IC50 (COX-1) | SMILES
17 | 2.4 µM | 1.9 µM | 218 to 219 °C | 3.8 µM | O=C(O)C1=Cc2cc(C#Cc3ccccc3)ccc2NC1C(F)(F)F (centres unmarked) [Example 211, 1,2-Dihydro-6-(phenylethynyl)-2-(trifluoromethyl)-3-quinolinecarboxylic acid]
18 | < 0.1 µM | < 0.1 µM | 205.4 to 206.5 °C | 1.3 µM | O=C(O)C1=Cc2cc(Cl)c(Oc3ccc(Cl)cc3)cc2OC1C(F)(F)F (centres unmarked) [Example 184, 6-Chloro-7-(4-chlorophenoxy)-2-(trifluoromethyl)-2H-1-benzopyran-3-carboxylic acid]
19 | 9.5 µM | < 0.1 µM | 174.1 to 176.1 °C | 30.3 µM | O=C(O)C1=Cc2cc(Cl)c(Oc3cccc(Cl)c3)cc2OC1C(F)(F)F (centres unmarked) [Example 196, 6-Chloro-7-(3-chlorophenoxy)-2-(trifluoromethyl)-2H-1-benzopyran-3-carboxylic acid]
20 | < 0.1 µM | < 0.1 µM | 212.5 to 215.7 °C | > 100 µM | N#Cc1ccc(Oc2cc3c(cc2Cl)C=C(C(=O)O)C(C(F)(F)F)O3)cc1 (centres unmarked) [Example 185, 6-Chloro-7-(4-cyanophenoxy)-2-(trifluoromethyl)-2H-1-benzopyran-3-carboxylic acid]
21 | < 0.1 µM | < 0.1 µM | 233 to 234 °C | 0.4 µM | O=C(O)C1=Cc2cc(Cl)c(Oc3ccc(Cl)cc3Cl)cc2OC1C(F)(F)F (centres unmarked) [Example 197, 6-Chloro-7-(2,4-dichlorophenoxy)-2-(trifluoromethyl)-2H-1-benzopyran-3-carboxylic acid]
22 | 1.4 µM | < 0.1 µM | 251.7 to 253.3 °C | 12.3 µM | O=C(O)C1=Cc2cc(Cl)c(Sc3ccc(Cl)cc3)cc2OC1C(F)(F)F (centres unmarked) [Example 192, 6-Chloro-7-[(4-chlorophenyl)thio]-2-(trifluoromethyl)-2H-1-benzopyran-3-carboxylic acid]
23 | < 0.1 µM | < 0.1 µM | 191.9 to 193.1 °C | 12.4 µM | O=C(O)C1=Cc2cc(Cl)c(Oc3ccc(F)c(F)c3)cc2OC1C(F)(F)F (centres unmarked) [Example 198, 6-Chloro-7-(3,4-difluorophenoxy)-2-(trifluoromethyl)-2H-1-benzopyran-3-carboxylic acid]
24 | 33.7 µM | 2.9 µM | 198 to 199.2 °C | > 100 µM | O=C(O)C1=Cc2cc(Cl)c(Oc3ccc(OC(F)(F)F)cc3)cc2OC1C(F)(F)F (centres unmarked) [Example 187, 6-Chloro-2-(trifluoromethyl)-7-[4-(trifluoromethoxy)phenoxy]-2H-1-benzopyran-3-carboxlic acid]
25 | 1.2 µM | < 0.1 µM | 252.6 to 254.8 °C | 44.8 µM | O=C(O)C1=Cc2cc(Cl)c(Oc3ccc4cc(Br)ccc4c3)cc2OC1C(F)(F)F (centres unmarked) [Example 189, 7-[(6-Bromo-2-naphthalenyl)oxy]-6-chloro-2-(trifluoromethyl)-2H-1-benzopyran-3-carboxylic acid]
26 | 10 µM | 1.7 µM | 259 to 268 °C | > 100 µM | C#Cc1ccc2c(c1)C=C(C(=O)O)C(C(F)(F)F)N2 (centres unmarked) [Example 210, 1,2-Dihydro-6-ethynyl-2-(trifluoromethyl)-3-quinolinecarboxylic acid]
27 | > 100 µM | 0.2 µM | 174.4 to 176 °C | > 100 µM | O=C(O)C1=Cc2cc(Cl)c(OCC(F)(F)F)cc2OC1C(F)(F)F (centres unmarked) [Example 209]
28 | 3.4 µM | < 0.1 µM | 230.9 to 232 °C | 32.8 µM | O=C(O)C1=Cc2cc(Cl)c(Oc3ccc(C(F)(F)F)cc3)cc2OC1C(F)(F)F (centres unmarked) [Example 186, 6-Chloro-2-(trifluoromethyl)-7-[4-(trifluoromethyl)phenoxy]-2H-1-beazopyran-3-carboxylic acid]
